Our source for the AC50 and IC50 values is ChEMBL document CHEMBL1201862, “PubChem BioAssay data set” (2004).

The source made the active and inactive calls.

The target of one test is Paired box protein Pax-8 (Homo sapiens, UniProt Q06710). The experiment in a line: PAX8 transcriptional activity inhibition in RMG-I – RMG-I cells, luciferase, cherry-pick, dose response (AID 687027).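 Further: luciferase reporter driven by Pax8 target thyroperoxidase promoter measured by SteadyGlo luminescence.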 The format is functional, cell-based.
Test [1] is described as follows: inhibitors acting on PAX2 in cells – cell-based, plate reader, dry powder samples, selectivity assay for PAX8 inhibitor project, dose response (AID 743048).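 Further: HEK293 cells carrying a WT1 promoter luciferase reporter driven by expressed Pax2; potency is for inhibition of Pax2 driven reporter signal.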 The format is functional.
Test [2] is described as follows: PAX5 cellular inhibition readout – cell-based, plate reader, dry powder samples, selectivity assay for PAX8 inhibitor project, dose response (AID 743047).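 Further: HEK293 cells carrying a Pax5 driven CD19 promoter luciferase reporter; potency of inhibitors that lower reporter luminescence.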 It counts as functional.
Test [3] in a line: PAX8-dependent cell viability loss – plate reader, dry powder, dose response (AID 743049). It counts as functional, cell-based.
Test [4] in a line: intracellular Trypanosoma cruzi inhibitors in host cells – cell-based, plate reader, cherry-pick samples, set 3, dose response (AID 651818).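 Further: compounds incubated with infected cells for about four days.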 It counts as functional.
A short description of test [5]: Inhibition of T. cruzi Tulahuen strain amastigotes in L-6 muscle cells Measured in Cell-Based and Microorganism Combination System Using Plate Reader - 2138-03_Inhibitor_Dose_CherryPick_Activity. To be noted: Rattus norvegicus, L6. It counts as functional.
A short description of test [6]: T. cruzi growth inhibition in host cells, dose response, cell-based, plate reader, dry powder, set 2 (AID 652275). It counts as functional.
Test [7] in a line: Inhibition of Plasmodium falciparum NF54 Measured in Cell-Based System Using Plate Reader - 2138-11_Inhibitor_Dose_CherryPick_Activity. The format is functional.
A short description of test [8]: antileishmanial activity on axenic amastigotes – plate reader, cherry pick, dose response (AID 651891). It counts as functional, cell-based. Particulars: Leishmania donovani.
Test [9] can be described thus: Trypanosoma cruzi replication inhibitors in host cells – cell-based, plate reader, dry powder samples, dose response (AID 651845). It counts as functional.
Test [10] can be described thus: L6 myocyte viability loss – cell-based, plate reader, cherry-pick, cytotoxicity control, dose response (AID 651896). It counts as functional.
A short description of test [11]: anti-trypanosomal activity in BESM host cells – imaging, CA-I/72 strain, bovine embryo skeletal muscle, dry powder, dose response (AID 651885). The format is functional, cell-based.
Test [12] in a line: African trypanosome bloodstream form growth inhibition – STIB900 strain, plate reader, cherry pick, dose response (AID 651893). The format is functional, cell-based, Trypanosoma brucei rhodesiense. To be noted: Trypanosoma brucei.
Test [13] deals with T1, Mannose-6-phosphate isomerase (Homo sapiens, UniProt P34949).
T1 sequence (P34949 whole entry): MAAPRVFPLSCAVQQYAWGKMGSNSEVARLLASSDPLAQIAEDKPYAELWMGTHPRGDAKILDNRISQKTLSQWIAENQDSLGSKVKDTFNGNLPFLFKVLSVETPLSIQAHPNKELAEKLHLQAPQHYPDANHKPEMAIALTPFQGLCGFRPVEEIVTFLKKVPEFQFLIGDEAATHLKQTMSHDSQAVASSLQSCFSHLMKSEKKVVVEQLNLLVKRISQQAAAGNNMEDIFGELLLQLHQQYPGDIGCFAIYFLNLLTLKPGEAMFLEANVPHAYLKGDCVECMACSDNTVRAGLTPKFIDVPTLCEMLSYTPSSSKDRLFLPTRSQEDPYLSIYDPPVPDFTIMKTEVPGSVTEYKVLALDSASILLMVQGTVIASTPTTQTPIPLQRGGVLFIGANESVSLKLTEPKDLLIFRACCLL
Briefly: MPI inhibition at elevated mannose 6-phosphate – biochemical, fluorescence intensity, high mannose 6-phosphate, primary screen (AID 1220).

In a further test the target is Heat shock protein HSP90 (Homo sapiens, UniProt P07900+P08238). Briefly: Hsp90 blockade concentration-response – dose response (AID 712). The format is functional.
Test [14] in a line: Dd2 parasite growth inhibition in erythrocytes – SYBR Green, dry powder samples, set 9, dose response (AID 1159568). The format is functional, cell-based.
A short description of test [15]: growth inhibition of PfATP4-mutant resistant parasites – NITD609-resistant line, SYBR Green, dry powder, dose response (AID 1159571).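 Further: parasites synchronized at ring stage by sorbitol before testing.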 It counts as functional, cell-based.
The nature of test [16]: toxicity to human HepG2 hepatoma cells – cell-based, plate reader, dry powder samples, cytotoxicity control, dose response (AID 1159569).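 Further: inhibitor potency with signal falling toward the positive control level.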 The format is functional.
The nature of test [17]: growth inhibition of yeast DHODH-expressing 3D7 parasites – SYBR Green, dry powder samples, dose response (AID 1159570).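 Further: parasite growth measured after 72 hours of compound exposure.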 It counts as functional, cell-based.
A short description of test [18]: P. falciparum Dd2 growth inhibitors, dose response, SYBR Green, cherry-picked samples (AID 1159567). It counts as functional, cell-based.
Test [19] can be described thus: Dd2 malaria parasite growth inhibition potency – SYBR Green, dry powder samples, dose response (AID 1159566).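 Further: potency for growth inhibition with lower SYBR green DNA signal.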 It counts as functional, cell-based.
The nature of test [20]: glucagon-like peptide-1 release potency in STC-1, concentration-response, half-maximal inhibitory concentration in the STC-1 line (AID 1117345). It counts as functional, cell-based.
Test [21] can be described thus: Potency on glucagon-like peptide 1 release, dose-response in NCI-H716 cell line, half maximal inhibitory concentration (AID 1117344). It counts as functional, cell-based.
The nature of test [22]: rise of 4N DNA cells, HeLa – IC50, dose response (AID 1117351). It counts as functional, cell-based.
A short description of test [23]: rise of 2N DNA cells, HeLa – IC50, dose response (AID 1117349). The format is functional, cell-based.
The nature of test [24]: IC50 of insulin release inhibition, rat insulinoma INS-1E line, 5 mM glucose, cell-based (AID 1117331). It counts as functional.
Another test is described as follows: cells. It counts as functional, cell-based. Particulars: INS-1E.

Sequence of Paired box protein Pax-8 (Q06710 whole entry): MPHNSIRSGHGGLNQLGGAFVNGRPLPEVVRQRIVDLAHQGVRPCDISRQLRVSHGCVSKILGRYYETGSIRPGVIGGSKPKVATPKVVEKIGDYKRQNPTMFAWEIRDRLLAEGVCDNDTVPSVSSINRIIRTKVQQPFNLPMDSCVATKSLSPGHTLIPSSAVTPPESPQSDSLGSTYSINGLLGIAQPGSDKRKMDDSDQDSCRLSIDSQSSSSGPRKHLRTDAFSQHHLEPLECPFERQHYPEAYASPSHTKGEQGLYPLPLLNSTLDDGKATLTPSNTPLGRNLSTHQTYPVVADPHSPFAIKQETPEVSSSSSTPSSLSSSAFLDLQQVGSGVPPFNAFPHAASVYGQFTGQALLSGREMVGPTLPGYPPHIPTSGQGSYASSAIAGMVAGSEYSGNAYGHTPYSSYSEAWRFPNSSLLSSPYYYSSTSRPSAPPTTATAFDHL

By AC50 is commonly meant the midpoint of the concentration-response curve, whichever way the signal moves. As to `C[C@H](CO)N1C[C@H](C)[C@@H](CN(C)S(=O)(=O)c2ccc(-c3ccccc3)cc2)OCc2cn(nn2)CCCC1=O`, the AC50 is 3.99 µM (active) at Paired box protein Pax-8, > 70 µM (inactive) in test [1], > 70 µM (inactive) in test [2] and > 70 µM (inactive) in test [3].
As a reminder, the IC50 is the point on the concentration scale where inhibition reaches its midpoint. In the case of `COc1ccc(CN(C)C[C@H]2Oc3c(NC(=O)c4ccncc4)cccc3C(=O)N([C@@H](C)CO)C[C@@H]2C)cc1`, the concentration at half-maximal activity (AC50) in [4] was 0.25 µM (active); in test [6], 0.127 µM (active); in test [9] it was 0.127 µM (active). Moreover, the IC50 in test [5] was 8.41 µM (inactive); in test [7] it was 8.41 µM (inactive); in test [8] it was > 100 µM (inactive); in [10], > 100 µM (inactive); in test [11] it was 0.478 µM (active); in test [12] it was 15.4 µM (inactive).
Take `CCOC(=O)c1c(C)oc2c1c(/C=N/CC1CCCO1)c(O)c1ccccc12` (configuration not stated): the IC50 is > 50 µM (not active) in [13] and 13.307 µM against Heat shock protein HSP90.
Take `O=C(Nc1ccccc1F)N1CCCCN2[C@H](CO)[C@@H](c3ccc(/C=C/c4ccccc4)cc3)[C@@H]2C1`: in test [14], the concentration at half-maximal activity (AC50) was 6.45 µM (active).
For the compound `C[C@H](CO)N1C[C@H](C)[C@H](CN(C)S(=O)(=O)c2ccc(F)cc2)OCc2ccccc2-c2c(n(C)c3ccccc23)C1=O`, the half-maximal activity concentration (AC50) was 0.481 µM (active) in [15]; 7.35 µM (active) in test [16]; 0.572 µM (active) in [17]; 1.1 µM (active) in [18]; 0.36 µM (active) in test [19].
Consider `c1ccc2sc(SSc3nc4ccccc4s3)nc2c1` [BENZOTHIAZYL DISULFIDE], for which the IC50 in test [20] was 5.58 µM (inactive); in [21] it was 9.23 µM (inactive).
With `COC(=O)Nc1nc2cc(C(=O)c3ccccc3)ccc2[nH]1` [MEBENDAZOLE], the values for the half-maximal inhibitory concentration (IC50) in test [22] and in test [23] were 0.08 µM (active) and 0.0761 µM (active), respectively.
As for `Cc1ccc(S(=O)(=O)NC(=O)NN2CCCCCC2)cc1` [TOLAZAMIDE], the IC50 is 6.98 µM (inactive) in test [24] and > 33.3 µM (inactive) in the test “cells”.
